{"source": "the NIST ThermoML archive (doi:10.1016/j.fluid.2015.04.014)", "conditions": "Crystal; visual observation", "note": "Numbers after ± are expanded uncertainties.", "data": [{"smiles": "CC1(C)[C@@H]2CC[C@@]1(CS(=O)(=O)O)C(=O)C2", "note": "[(1S)-(+)-10-camphorsulfonic acid]", "values": [{"measurement": "Normal melting temperature", "result": "198.00 ± 4", "unit": "°C"}]}]}
